In patent US10988478B1, “Pyrazolo[1,5a]pyrimidine derivatives as IRAK4 modulators” (Genentech, Inc., priority 2015, dated 2021):

molecular target: human IRAK4 (Homo sapiens (Human), UniProt Q9NWZ3); assay: IRAK4 kinase inhibition, Transcreener fluorescence polarization ADP assay; format: biochemical; conditions: recombinant full-length His6-IRAK4; 125 uM ATP; 90 min; Ki computed using ATP Km 642 uM
Procedure: Compounds were assayed for inhibition of human IRAK4 and IRAK1 catalytic activity using recombinant enzyme produced from insect cells. Full-length IRAK4 protein, carrying an N-terminal His6-Tag, was obtained from Life Technologies (Carlsbad, Calif., USA). The IRAK1 construct was produced internally and was comprised of IRAK1 residues Arg194 to Ser712, preceded by an NH2-terminal His6 tag and the coding sequence for glutathione-S-transferase.

Chain of human IRAK4 (Q9NWZ3 whole entry, the tested form may be a part): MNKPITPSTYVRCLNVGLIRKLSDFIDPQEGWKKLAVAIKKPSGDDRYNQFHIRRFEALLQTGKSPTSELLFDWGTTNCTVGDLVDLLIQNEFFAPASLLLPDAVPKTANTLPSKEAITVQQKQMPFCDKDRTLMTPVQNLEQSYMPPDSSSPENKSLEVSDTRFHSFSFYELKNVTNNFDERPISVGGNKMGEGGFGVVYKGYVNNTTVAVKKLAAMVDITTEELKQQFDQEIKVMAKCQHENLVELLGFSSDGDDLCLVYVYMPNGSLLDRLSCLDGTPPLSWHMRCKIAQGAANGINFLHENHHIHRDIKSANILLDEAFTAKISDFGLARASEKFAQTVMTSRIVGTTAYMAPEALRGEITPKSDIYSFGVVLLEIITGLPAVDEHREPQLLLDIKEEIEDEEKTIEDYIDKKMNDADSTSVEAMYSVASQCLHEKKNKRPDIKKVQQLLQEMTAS

Row | SMILES | Ki
1 | C[C@@]1(CO)Cc2cc(NC(=O)c3cnn4cccnc34)c(N3C[C@@H]4[C@H](C3)[C@@H]4C(N)=O)cc2O1 [Example 349, N-((S)-6-((1R,5S,6R)-6-carbamoyl-3-azabicyclo[3.1.0]hexan-3-yl)-2-(hydroxymethyl)-2-methyl-2,3-dihydrobenzofuran-5-yl)pyrazolo[1,5-a]pyrimidine-3-carboxamide] | 1100 nM
2 | CC1(CO)Cc2cc(NC(=O)c3cnn4cccnc34)c(N3CCC(C(O)C(F)F)CC3)cc2O1 (centres unmarked) [Example 352, N-(6-(4-(2,2-Difluoro-1-hydroxyethyl)piperidin-1-yl)-2-(hydroxymethyl)-2-methyl-2,3-dihydrobenzofuran-5-yl)pyrazolo[1,5-a]pyrimidine-3-carboxamide] | 2 nM
3 | CC(C)(O)[C@]1(C)Cc2cc(NC(=O)c3cnn4cccnc34)c(N3CCC(CO)CC3)cc2O1 [Example 354, (S)—N-(6-(4-(Hydroxymethyl)piperidin-1-yl)-2-(2-hydroxypropan-2-yl)-2-methyl-2,3-dihydrobenzofuran-5-yl)pyrazolo[1,5-a]pyrimidine-3-carboxamide] | 3 nM
4 | CC(C)(O)[C@@]1(C)Cc2cc(NC(=O)c3cnn4cccnc34)c(N3CCC(CO)CC3)cc2O1 [Example 355, (R)—N-(6-(4-(Hydroxymethyl)piperidin-1-yl)-2-(2-hydroxypropan-2-yl)-2-methyl-2,3-dihydrobenzofuran-5-yl)pyrazolo[1,5-a]pyrimidine-3-carboxamide] | 6 nM
5 | CC(C)(O)C1(C)Cc2cc(NC(=O)c3cnn4cccnc34)c(N3CCN(CC(N)=O)CC3)cc2O1 (centres unmarked) [Example 356, N-[6-[4-(2-amino-2-oxo-ethyl)piperazin-1-yl]-2-(1-hydroxy-1-methyl-ethyl)-2-methyl-3H-benzofuran-5-yl]pyrazolo[1,5-a]pyrimidine-3-carboxamide] | 4 nM
6 | CC1(C)Cc2cc(NC(=O)c3cnn4cccnc34)c(C3CCN(CCO)CC3)cc2O1 [Example 357, N-(6-(1-(2-Hydroxyethyl)piperidin-4-yl)-2,2-dimethyl-2,3-dihydrobenzofuran-5-yl)pyrazolo[1,5-a]pyrimidine-3-carboxamide] | 410 nM
7 | CC1(C)Oc2cc(NC(=O)c3cnn4cccnc34)c(N3CCOCC3)cc2C1O (centres unmarked) [Example 358, N-(3-Hydroxy-2,2-dimethyl-5-morpholino-2,3-dihydrobenzofuran-6-yl)pyrazolo[1,5-a]pyrimidine-3-carboxamide] | 510 nM
8 | CC1(C)Oc2cc(NC(=O)c3cnn4cccnc34)c(N3CCOCC3)cc2C1=O [Example 359, N-(2,2-dimethyl-5-morpholino-3-oxo-2,3-dihydrobenzofuran-6-yl)pyrazolo[1,5-a]pyrimidine-3-carboxamide] | 260 nM
9 | CC(C)(O)[C@@]1(C)Cc2cc(NC(=O)c3cnn4cccnc34)c(N3CCN(CC(F)F)CC3)cc2O1 [Example 360, (R)—N-(6-(4-(2,2-Difluoroethyl)piperazin-1-yl)-2-(2-hydroxypropan-2-yl)-2-methyl-2,3-dihydrobenzofuran-5-yl)pyrazolo[1,5-a]pyrimidine-3-carboxamide] | 6.3 nM
10 | CC(C)(O)[C@]1(C)Cc2cc(NC(=O)c3cnn4cccnc34)c(N3CCN(CC(F)F)CC3)cc2O1 [Example 361, (S)—N-(6-(4-(2,2-Difluoroethyl)piperazin-1-yl)-2-(2-hydroxypropan-2-yl)-2-methyl-2,3-dihydrobenzofuran-5-yl)pyrazolo[1,5-a]pyrimidine-3-carboxamide] | 9.2 nM
11 | CC1(COC(F)F)Cc2cc(NC(=O)c3cnn4cccnc34)c(N3CCN(CC(F)F)CC3)cc2O1 (centres unmarked) [Example 362, N-(6-(4-(2,2-difluoroethyl)piperazin-1-yl)-2-((difluoromethoxy)methyl)-2-methyl-2,3-dihydrobenzofuran-5-yl)pyrazolo[1,5-a]pyrimidine-3-carboxamide] | 6.7 nM
12 | CC(C)(O)C1(C)Cc2cc(NC(=O)c3cnn4cccnc34)c(N3CCC(CO)CC3)cc2O1 (centres unmarked) [Example 363, N-(6-(4-(hydroxymethyl)piperidin-1-yl)-2-(2-hydroxypropan-2-yl)-2-methyl-2,3-dihydrobenzofuran-5-yl)pyrazolo[1,5-a]pyrimidine-3-carboxamide] | 5.3 nM
13 | CC1(C(F)F)Cc2cc(NC(=O)c3cnn4cccnc34)c(N3CCN(CC(F)F)CC3)cc2O1 (centres unmarked) [Example 364, N-(6-(4-(2,2-Difluoroethyl)piperazin-1-yl)-2-(difluoromethyl)-2-methyl-2,3-dihydrobenzofuran-5-yl)pyrazolo[1,5-a]pyrimidine-3-carboxamide] | 3.7 nM
14 | C[C@]1(CC(F)F)Cc2cc(NC(=O)c3cnn4cccnc34)c(N3CCOCC3)cc2O1 [Example 367, N-[(2R)-2-(2,2-difluoroethyl)-2-methyl-6-morpholino-3H-benzofuran-5-yl]pyrazolo[1,5-a]pyrimidine-3-carboxamide] | 5.8 nM
15 | O=C(Nc1cc2c(cc1N1CCOCC1)OC1(CCN(CCO)CC1)C2)c1cnn2cccnc12 [Example 369, N-[1′-(2-Hydroxyethyl)-6-morpholino-spiro[3H-benzofuran-2,4′-piperidine]-5-yl]pyrazolo[1,5-a]pyrimidine-3-carboxamide] | 6.8 nM
16 | O=C(Nc1cc2c(cc1N1CCOCC1)OC1(CCN(CC(F)F)CC1)C2)c1cnn2cccnc12 [Example 370, N-[1′-(2,2-difluoroethyl)-6-morpholino-spiro[3H-benzofuran-2,4′-piperidine]-5-yl]pyrazolo[1,5-a]pyrimidine-3-carboxamide] | 5.8 nM
17 | CN1CCC2(CC1)Cc1cc(NC(=O)c3cnn4cccnc34)c(N3CCC(CO)CC3)cc1O2 [Example 371, N-(6-(4-(Hydroxymethyl)piperidin-1-yl)-1′-methyl-3H-spiro[benzofuran-2,4′-piperidin]-5-yl)pyrazolo[1,5-a]pyrimidine-3-carboxamide] | 1.4 nM
18 | CC(C)N1CCC2(CC1)Cc1cc(NC(=O)c3cnn4cccnc34)c(N3CCOCC3)cc1O2 [Example 372, N-(1′-isopropyl-6-morpholino-spiro[3H-benzofuran-2,4′-piperidine]-5-yl)pyrazolo[1,5-a]pyrimidine-3-carboxamide] | 13 nM
19 | CN1CCC2(CC1)Cc1cc(NC(=O)c3cnn4cccnc34)c(N3CCN(CC(N)=O)CC3)cc1O2 [Example 373, N-(6-(4-(2-Amino-2-oxoethyl)piperazin-1-yl)-1′-methyl-3H-spiro[benzofuran-2,4′-piperidin]-5-yl)pyrazolo[1,5-a]pyrimidine-3-carboxamide] | 1.7 nM
20 | CC(=O)N1CCC2(CC1)Cc1cc(NC(=O)c3cnn4cccnc34)c(N3CCN(CC(N)=O)CC3)cc1O2 [Example 374, N-(1′-Acetyl-6-(4-(2-amino-2-oxoethyl)piperazin-1-yl)-3H-spiro[benzofuran-2,4′-piperidin]-5-yl)pyrazolo[1,5-a]pyrimidine-3-carboxamide] | 2 nM
21 | O=C(CN1CCN(c2cc3c(cc2NC(=O)c2cnn4cccnc24)CC2(CCNCC2)O3)CC1)NC1CC1 [Example 375, N-(6-(4-(2-(Cyclopropylamino)-2-oxoethyl)piperazin-1-yl)-3H-spiro[benzofuran-2,4′-piperidin]-5-yl)pyrazolo[1,5-a]pyrimidine-3-carboxamide] | 47 nM
22 | CN1CCC2(CC1)Cc1cc(NC(=O)c3cnn4cccnc34)c(N3CCN(CC(=O)NC4CC4)CC3)cc1O2 [Example 376, N-(6-(4-(2-(Cyclopropylamino)-2-oxoethyl)piperazin-1-yl)-1′-methyl-3H-spiro[benzofuran-2,4′-piperidin]-5-yl)pyrazolo[1,5-a]pyrimidine-3-carboxamide] | 46 nM
23 | O=C(Nc1cc2c(cc1OCC(F)F)OC1(CCNCC1)C2)c1cnn2cccnc12 [Example 377, N-(6-(2,2-Difluoroethoxy)-3H-spiro[benzofuran-2,4′-piperidin]-5-yl)pyrazolo[1,5-a]pyrimidine-3-carboxamide] | 11 nM
24 | CN1CCC2(CC1)Cc1cc(NC(=O)c3cnn4cccnc34)c(OCC(F)F)cc1O2 [Example 378, N-(6-(2,2-difluoroethoxy)-1′-methyl-3H-spiro[benzofuran-2,4′-piperidin]-5-yl)pyrazolo[1,5-a]pyrimidine-3-carboxamide] | 7.3 nM
25 | CNc1cnc2c(C(=O)Nc3cc4c(cc3N3CCN(CC(F)F)CC3)OC(C)(C)C4)cnn2c1 [Example 379, N-[6-[4-(2,2-difluoroethyl)piperazin-1-yl]-2,2-dimethyl-3H-benzofuran-5-yl]-6-(methylamino)pyrazolo[1,5-a]pyrimidine-3-carboxamide] | 5.1 nM
26 | CNc1cnc2c(C(=O)Nc3cc4c(cc3N3CCOCC3)OC3(CCN(C)CC3)C4)cnn2c1 [Example 380, N-(1′-methyl-6-morpholino-3H-spiro[benzofuran-2,4′-piperidin]-5-yl)-6-(methylamino)pyrazolo[1,5-a]pyrimidine-3-carboxamide] | 8.1 nM
27 | CNc1cnc2c(C(=O)Nc3cc4c(cc3N3CCN(CC(F)F)CC3)O[C@](C)(CO)C4)cnn2c1 [Example 381, (S)-N-(6-(4-(2,2-difluoroethyl)piperazin-1-yl)-2-(hydroxymethyl)-2-methyl-2,3-dihydrobenzofuran-5-yl)-6-(methylamino)pyrazolo[1,5-a]pyrimidine-3-carboxamide] | 3 nM
28 | CNc1cnc2c(C(=O)Nc3cc4c(cc3N3CCN(CC(F)F)CC3)O[C@@](C)(CO)C4)cnn2c1 [Example 382, (R)-N-(6-(4-(2,2-difluoroethyl)piperazin-1-yl)-2-(hydroxymethyl)-2-methyl-2,3-dihydrobenzofuran-5-yl)-6-(methylamino)pyrazolo[1,5-a]pyrimidine-3-carboxamide] | 4 nM
29 | CNc1cnc2c(C(=O)Nc3cc4c(cc3N3CCN(CC(F)F)CC3)OC3(CCOCC3)C4)cnn2c1 [Example 383, N-(6-(4-(2,2-difluoroethyl)piperazin-1-yl)-2′,3′,5′,6′-tetrahydro-3H-spiro[benzofuran-2,4′-pyran]-5-yl)-6-(methylamino)pyrazolo[1,5-a]pyrimidine-3-carboxamide] | 7.6 nM
